The source of these data is US10722505B2, “Substituted 2,4 diamino-quinoline as new anticancer agents” (GENOSCIENCE PHARMA, priority 2014, dated 2020).

A word on the EC50: it is the midpoint of the concentration-response curve.

Common to all, as to assay type: cell-based
For test [1], the system named is HCT-116 cell line. The experiment in a line: CellTiter-Glo growth inhibition assay, HCT-116. The conditions noted are these: Homo sapiens; HCT-116, colorectal carcinoma, 72 h. Here is the method:
(§1) All cell lines were maintained in medium containing 1% penicillin-streptomycin (Dutscher, P06-07100) and 10% Fetal Bovine Serum (Gibco, W3387L) except 20% for KG-1 cell line and PBMC, and cultured at 37° C. with 5% CO2.
(§2) HepG2, Huh7, HCT-116, MDA-MB-231 and A375 cell lines were cultured in Dulbecco's modified Eagle's medium (Dutscher, L0103).
(§3) Cell viability was measured using the CellTiter-Glo® luminescent cell viability assay as described by the manufacturer (Promega, Ref G7571) using an Infinite F200Pro luminometer (Tecan). Briefly, for adherent cells, cells were plated onto 96-well plates (white with clear bottom) in 90 μL of media per well and were allowed to grow overnight before the assay. For cells growing in suspension, cells were plated onto 96-well plates immediately before the assay.
(§4) Compounds were added at different concentrations to each well, and cell cultures were incubated for 72 h. Vehicle (H2O) was used as a control, and all compounds were tested in a constant percentage of H2O. After addition of 100 μL of CellTiter-Glo®, luminescence was measured using an Infinite F200Pro (Tecan). EC50 values were determined as the dose of compound required to reduce luminescent values to 50% of the signal obtained for untreated cell cultures. The experimental data were analyzed using a computer program, Graphpad Prism v5 (GraphPad Software, Inc. La Jolla, Calif.). […]
A general note: Cellular ATP, detected with luciferase, serves as a proxy for viable cell number.

The test system of test [2] is PBMC (peripheral blood mononuclear cell). Kind of test: CellTiter-Glo growth inhibition assay, PBMC. The conditions noted are these: 72 h. Here is the method:
as §1
PBMC was maintained in RPMI 1640 medium medium (Dutscher, L0498).
as §3, §4

The test system of test [3] is MV4-11 cell line. The experiment in a line: CellTiter-Glo growth inhibition assay, MV4-11. The conditions noted are these: Homo sapiens; MV4-11, biphenotypic B myelomonocytic leukemia, 72 h. Here is the method: as §1
KG-1 and MV4-11 cell line were maintained in Iscove's modified Dulbecco's medium (Dutscher, L0190).
as §3, §4

Test [4] deals with Huh-7 cell line. The experiment in a line: CellTiter-Glo growth inhibition assay, Huh-7. To be noted: Homo sapiens; Huh-7, hepatocellular carcinoma, 72 h. As to the method:
as §1, §2, §3, §4

Test [5] has as its system CPP45 liver metastatic CRC patient-derived cells. The experiment in a line: CellTiter-Glo growth inhibition, liver metastatic CRC patient-derived cells CPP45. The conditions noted are these: Homo sapiens; CPP45, 72 h. From the text: (§5) Patient derived liver metastasis cells (CPP19, 30, 36 and CPP45—see table 1 for clinical descriptions) were maintained in complete DMEM (Gibco) with 10% FBS. Cells were obtained from biopsies provided by CHU-Caremeau (Nimes, France) within an approved protocol. Signed informed consents were obtained from patients prior to samples acquisition in accordance with all ethical and legal aspects. Tumors were washed, minced into fragments (<2 mm^3) and digested with liberase H (0.26 U/mL, Roche) resuspended in Accumax (Sigma-Aldrich). After 2 hours at 37° C., cell suspension was filtered through a […] to obtain a single cell suspension and plated in DMEM medium, supplemented with FBS, glutamine, antibiotics and non-essential aminoacids. When a monolayer of patient-derived tumor cells was formed, cells were detached using trypsin/EDTA and resuspended in DMEM with 10% FBS (for adherent cells) or defined M11 media (for sphere formation). Cells were cultured in a humidified atmosphere at 37° C. and 5% CO2.
(§6) Cells were plated at 10^4 cells per well in P96 well plates in DMEM with 10% FBS. After 24 hours, cells were treated with compound 2-3 and cell viability was assessed 72 h post-treatment by CellTiter-Glo® Luminescent Cell Viability Assay (Promega). EC50 were calculated using GraphPad Prism Software v6 (Graphpad Software, Inc La Jolla, Calif.). […]

In test [6] the test system is A375 cell line. Kind of test: CellTiter-Glo growth inhibition assay, A375. To be noted: Homo sapiens, A-375; A375, malignant melanoma, 72 h. Here is the method: as §1, §2, §3, §4
Test [7] deals with MDA-MB-231 cell line. The experiment in a line: CellTiter-Glo growth inhibition assay, MDA-MB-231. The conditions noted are these: Homo sapiens; MDA-MB-231, breast adenocarcinoma, 72 h. As to the method:
as §1, §2, §3, §4

The subject of test [8] is CPP19 liver metastatic CRC patient-derived cells. The experiment in a line: CellTiter-Glo growth inhibition, liver metastatic CRC patient-derived cells CPP19. To be noted: Homo sapiens; CPP19, 72 h.
Text: as §5, §6

Structures can show the parent of a compound that is named as a salt.

As to `CC(C)(C)NC1CCN(c2cc(NCc3ccc(Cl)cc3)nc3ccccc23)CC1` [Compound 2-3, 2-(4-chlorobenzylamino)-4-(4-tert-butylaminopiperidin-1-yl)-quinoline hydrochloride salt], the EC50 in test [1] amounted to 1600 nM; in test [2] it was 1900 nM; in test [3], 2300 nM; in test [4], 1700 nM; in test [5], 1120 nM; in test [6], 1000 nM. For the same compound, the figures for the EC50 in test [7] and in test [8] were 2000 nM and 1880 nM, respectively.
